Values of other authors as cited in patent US20260201030A1, “ANTIBODY, ANTIBODY-DRUG CONJUGATE THEREOF AND USE THEREOF” (EVOPOINT BIOSCIENCES CO., LTD., priority 2021, published 2026).

Settings: FL118 alone; cited from earlier work

In the case of `CC[C@@]1(O)C(=O)OCc2c1cc1n(c2=O)Cc2cc3cc4c(cc3nc2-1)OCO4` [FL118, (20S)-10,11-methylenedioxy camptothecin], the water solubility is given as “extremely poor water solubility”.
